Laboratory results published in ChEMBL document CHEMBL4725392, “Orally Bioavailable Small-Molecule CD73 Inhibitor (OP-5244) Reverses Immunosuppression through Blockade of Adenosine Production” (J Med Chem, 2020).
Calls of active or inactive are those of the source. No cut-off for these calls is given here.

Tests used:
[1] = molecular target: T1, 5'-nucleotidase (Mus musculus) (UniProt Q61503); test: Inhibition of CD73 in AMP-induced mouse E.G7-OVA cells at 10 to 100 nM incubated for 60 mins by Wachstein-Meisel lead phosphate method; type: cell-based; conditions: dose nM 10-100, time 60.0 min
T1 sequence (whole entry): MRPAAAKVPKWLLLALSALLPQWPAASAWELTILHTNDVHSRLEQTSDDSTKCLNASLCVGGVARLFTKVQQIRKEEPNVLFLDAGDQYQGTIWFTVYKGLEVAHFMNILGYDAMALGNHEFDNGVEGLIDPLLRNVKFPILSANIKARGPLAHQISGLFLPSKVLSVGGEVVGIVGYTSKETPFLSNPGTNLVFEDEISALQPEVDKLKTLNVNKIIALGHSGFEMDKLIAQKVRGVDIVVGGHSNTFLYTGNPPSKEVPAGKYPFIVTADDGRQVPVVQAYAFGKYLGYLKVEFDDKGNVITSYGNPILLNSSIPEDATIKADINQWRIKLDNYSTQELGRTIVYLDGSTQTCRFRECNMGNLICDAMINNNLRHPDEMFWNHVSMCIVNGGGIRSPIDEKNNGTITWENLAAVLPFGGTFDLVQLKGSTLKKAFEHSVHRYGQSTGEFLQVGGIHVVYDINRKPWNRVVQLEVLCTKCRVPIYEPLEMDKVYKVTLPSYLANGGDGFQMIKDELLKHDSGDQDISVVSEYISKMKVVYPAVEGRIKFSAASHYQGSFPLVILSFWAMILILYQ

[2] = molecular target: T1, 5'-nucleotidase (Mus musculus); test: Inhibition of CD73 in AMP-induced mouse E.G7-OVA cells incubated for 60 mins by Wachstein-Meisel lead phosphate method; type: cell-based; conditions: dose nM 10-100, time 60.0 min
E.G7-OVA [3] = test: Antitumour activity against mouse E.G7-OVA cells implanted in C57BL/6 mouse assessed as increase in percentage of CD8+ T cells in total CD45+ leukocytes at 150 mg/kg, po BID for 16 days; type: functional, organism-based; conditions: time 16.0 day
[4] = AUC in rat at 0.2 mg/kg, iv; type: ADME, organism-based; design: dose 0.2 mg/kg; conditions: in vivo
[5] = AUC in rat at 10 mg/kg, po; type: ADME, organism-based; design: dose 10 mg/kg; conditions: in vivo
[6] = Clearance in dog at 0.2 mg/kg, iv; type: ADME, organism-based, Canis lupus familiaris; conditions: in vivo
[7] = molecular target: T1, 5'-nucleotidase (Mus musculus); test: Inhibition of CD73 in mouse EMT6 cells assessed as reduction in AMP-induced ADO expression preincubated for 15 mins followed by AMP addition and measured after 1 hr by LC-MS/MS analysis relative to control; type: cell-based
Cytochrome P450 2C8 = molecular target: T2, Cytochrome P450 2C8 (Homo sapiens, UniProt P10632); test: Inhibition of CYP2C8 (unknown origin); type: ADME
T2 sequence (P10632 whole entry): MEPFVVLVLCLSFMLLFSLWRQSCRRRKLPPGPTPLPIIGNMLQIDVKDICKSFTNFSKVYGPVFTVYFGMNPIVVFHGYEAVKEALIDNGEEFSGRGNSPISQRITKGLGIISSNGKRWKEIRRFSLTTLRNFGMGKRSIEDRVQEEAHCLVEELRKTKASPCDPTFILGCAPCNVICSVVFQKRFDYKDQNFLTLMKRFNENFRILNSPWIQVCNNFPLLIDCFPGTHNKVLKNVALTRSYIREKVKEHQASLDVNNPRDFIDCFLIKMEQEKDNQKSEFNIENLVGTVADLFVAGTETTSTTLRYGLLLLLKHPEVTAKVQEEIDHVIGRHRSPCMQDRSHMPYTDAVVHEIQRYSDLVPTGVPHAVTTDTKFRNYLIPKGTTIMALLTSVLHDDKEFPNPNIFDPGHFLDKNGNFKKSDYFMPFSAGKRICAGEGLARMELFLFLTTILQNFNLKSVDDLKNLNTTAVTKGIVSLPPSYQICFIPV

5'-nucleotidase [8] = molecular target: T3, 5'-nucleotidase (Mus musculus, UniProt Q61503); test: Inhibition of CD73 in mouse EMT6 cells assessed as reduction in AMP-induced ADO expression preincubated for 15 mins followed by AMP addition and measured after 1 hr by LC-MS/MS analysis; type: cell-based
T3 sequence (Q61503 whole entry): T1 sequence (whole entry)

5'-nucleotidase [9] = molecular target: T4, 5'-nucleotidase (Homo sapiens, UniProt P21589); test: Inhibition of CD73 in human CD8+ T-cells assessed as reduction in AMP-induced ADO expression preincubated for 15 mins followed by AMP addition and measured after 1 hr by LC-MS/MS analysis; type: tissue-based, CD8-positive T cell
Cytochrome P450 2C9 = Cytochrome P450 2C9 (Homo sapiens, UniProt P11712); test: Inhibition of CYP2C9 (unknown origin); type: ADME
[10] = Clearance in cynomolgus monkey at 0.2 mg/kg, iv; type: ADME, organism-based, Macaca fascicularis; conditions: in vivo
[11] = Cmax in rat at 10 mg/kg, po; type: ADME, organism-based; design: route oral, dose 10 mg/kg; conditions: in vivo
E.G7-OVA [12] = test: Antitumour activity against mouse E.G7-OVA cells implanted in C57BL/6 mouse assessed as increase in CD8+/Treg ratio at 150 mg/kg, po BID for 16 days; type: functional, organism-based; conditions: time 16.0 day
[13] = Cmax in dog at 10 mg/kg, po; type: ADME, organism-based, Canis lupus familiaris; design: route oral, dose 10 mg/kg; conditions: in vivo
5'-nucleotidase [14] = molecular target: T4, 5'-nucleotidase; test: Inhibition of CD73 in human NCI-H1568 cells assessed as reduction in AMP-induced ADO expression preincubated for 15 mins followed by AMP addition and measured after 1 hr by LC-MS/MS analysis; type: cell-based
[15] = Volume of distribution at steady state in rat at 0.2 mg/kg, iv; type: ADME, organism-based; conditions: in vivo, read-out: Vdss
5'-nucleotidase [16] = molecular target: T4, 5'-nucleotidase; test: Inhibition of CD73 in CD3/CD28/CD2 activated human CD8+ T-cells assessed as increase in IFNgamma protein expression at 4.1 to 1000 nM preincubated for 15 mins followed by AMP addition and measured after 96 hr by ELISA; type: tissue-based; conditions: CD8-positive T cell, dose nM 4.1-1000, time 15.0 min
5'-nucleotidase [17] = molecular target: T4, 5'-nucleotidase; test: Inhibition of CD73 in human CD8+ T-cells assessed as reduction in AMP-induced ADO expression preincubated for 15 mins followed by AMP addition and measured after 1 hr by LC-MS/MS analysis relative to control; type: tissue-based; conditions: CD8-positive T cell
[18] = Cmax in mouse at 200 mg/kg, po; type: ADME, organism-based; design: route oral, dose 200 mg/kg; conditions: in vivo
5'-nucleotidase [19] = molecular target: T4, 5'-nucleotidase; test: Inhibition of CD73 in CD3/CD28/CD2 activated human CD8+ T-cells assessed as increase in T cell proliferation at 4.1 to 1000 nM preincubated for 15 mins followed by AMP addition and measured after 96 hr by flow cytometric analysis; type: tissue-based; conditions: CD8-positive T cell, dose nM 4.1-1000, time 15.0 min
[20] = Clearance in rat at 0.2 mg/kg, iv; type: ADME, organism-based; conditions: in vivo
EMT6 [21] = test: Antitumor activity against mouse EMT6 cells implanted in BALB/c mouse assessed as decrease in ADO expression at 15 mg/kg, sc and measured on day 13 relative to control; type: functional; design: scale not given: the % may be the effect or the level left; conditions: time 13 day
[22] = Terminal half life in dog at 0.2 mg/kg, iv; type: ADME, organism-based, Canis lupus familiaris; conditions: in vivo, read-out: beta t1/2 (converted)
EMT6 [23] = test: Antitumor activity against mouse EMT6 cells implanted in BALB/c mouse assessed as decrease in ADO/AMP ratio at 15 mg/kg, sc and measured on day 13 relative to control; type: functional; design: scale not given: the % may be the effect or the level left; conditions: time 13 day
5'-nucleotidase [24] = molecular target: T4, 5'-nucleotidase; test: Inhibition of CD73 in human NCI-H1568 cells assessed as reduction in AMP-induced ADO expression preincubated for 15 mins followed by AMP addition and measured after 1 hr by LC-MS/MS analysis relative to control; type: cell-based
5'-nucleotidase [25] = molecular target: T4, 5'-nucleotidase; test: Inhibition of CD73 in CD3/CD28/CD2 activated human CD8+ T-cells assessed as increase in TNFalpha protein expression at 4.1 to 1000 nM preincubated for 15 mins followed by AMP addition and measured after 96 hr by ELISA; type: tissue-based; conditions: CD8-positive T cell, dose nM 4.1-1000, time 15.0 min
[26] = AUC infinity in mouse at 200 mg/kg, po; type: ADME, organism-based; design: route oral, time infinity, dose 200 mg/kg; conditions: in vivo
[27] = AUC in cynomolgus monkey at 10 mg/kg, po; type: ADME, organism-based, Macaca fascicularis; design: dose 10 mg/kg; conditions: in vivo
[28] = AUC in cynomolgus monkey at 0.2 mg/kg, iv; type: ADME, organism-based, Macaca fascicularis; design: dose 0.2 mg/kg; conditions: in vivo
Cytochrome P450 3A4 = Cytochrome P450 3A4 (Homo sapiens, UniProt P08684); test: Inhibition of CYP3A4 (unknown origin); type: ADME
[29] = Cmax in cynomolgus monkey at 10 mg/kg, po; type: ADME, organism-based, Macaca fascicularis; design: route oral, dose 10 mg/kg; conditions: in vivo
[30] = Terminal half life in cynomolgus monkey at 0.2 mg/kg, iv; type: ADME, organism-based, Macaca fascicularis; conditions: in vivo, read-out: beta t1/2 (converted)
[31] = AUC in dog at 10 mg/kg, po; type: ADME, organism-based, Canis lupus familiaris; design: dose 10 mg/kg; conditions: in vivo
[32] = Terminal half life in mouse at 200 mg/kg, po; type: ADME, organism-based; conditions: in vivo, read-out: beta t1/2 (converted)
5'-nucleotidase [33] = molecular target: T4, 5'-nucleotidase; test: Inhibition of human C-terminal His6-tagged CD73 expressed in CHO cells preincubated for 15 mins followed by AMP addition and measured after 10 mins by malachite green reagent based assay; type: cell-based
[34] = Volume of distribution at steady state in dog at 0.2 mg/kg, iv; type: ADME, organism-based, Canis lupus familiaris; conditions: in vivo, read-out: Vdss
[35] = AUC in dog at 0.2 mg/kg, iv; type: ADME, organism-based, Canis lupus familiaris; design: dose 0.2 mg/kg; conditions: in vivo
EMT6 [36] = test: Antitumor activity against mouse EMT6 cells implanted in BALB/c mouse assessed as tumour growth inhibition at 15 mg/kg, sc and measured on day 13; type: functional, organism-based; conditions: time 13.0 day
[37] = Volume of distribution at steady state in cynomolgus monkey at 0.2 mg/kg, iv; type: ADME, organism-based, Macaca fascicularis; conditions: in vivo, read-out: Vdss
[38] = Terminal half life in rat at 0.2 mg/kg, iv; type: ADME, organism-based; conditions: in vivo, read-out: beta t1/2 (converted)

T4 sequence (P21589 whole entry): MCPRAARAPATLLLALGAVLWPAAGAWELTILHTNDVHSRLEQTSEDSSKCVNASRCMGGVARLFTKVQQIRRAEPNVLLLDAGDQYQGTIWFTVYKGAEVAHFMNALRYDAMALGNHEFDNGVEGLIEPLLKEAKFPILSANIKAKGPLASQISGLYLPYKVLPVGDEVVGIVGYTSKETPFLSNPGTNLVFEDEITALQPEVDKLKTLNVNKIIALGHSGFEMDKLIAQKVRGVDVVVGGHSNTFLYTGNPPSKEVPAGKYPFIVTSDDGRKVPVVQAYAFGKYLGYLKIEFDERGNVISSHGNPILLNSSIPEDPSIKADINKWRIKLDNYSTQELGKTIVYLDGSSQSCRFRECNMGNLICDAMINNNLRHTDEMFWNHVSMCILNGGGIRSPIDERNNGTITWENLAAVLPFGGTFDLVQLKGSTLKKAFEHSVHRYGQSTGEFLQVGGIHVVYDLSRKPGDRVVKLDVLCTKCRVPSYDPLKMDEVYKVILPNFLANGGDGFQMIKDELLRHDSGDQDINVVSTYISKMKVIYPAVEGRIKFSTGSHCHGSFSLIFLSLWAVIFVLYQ
Chain of Cytochrome P450 2C9 (P11712 whole entry): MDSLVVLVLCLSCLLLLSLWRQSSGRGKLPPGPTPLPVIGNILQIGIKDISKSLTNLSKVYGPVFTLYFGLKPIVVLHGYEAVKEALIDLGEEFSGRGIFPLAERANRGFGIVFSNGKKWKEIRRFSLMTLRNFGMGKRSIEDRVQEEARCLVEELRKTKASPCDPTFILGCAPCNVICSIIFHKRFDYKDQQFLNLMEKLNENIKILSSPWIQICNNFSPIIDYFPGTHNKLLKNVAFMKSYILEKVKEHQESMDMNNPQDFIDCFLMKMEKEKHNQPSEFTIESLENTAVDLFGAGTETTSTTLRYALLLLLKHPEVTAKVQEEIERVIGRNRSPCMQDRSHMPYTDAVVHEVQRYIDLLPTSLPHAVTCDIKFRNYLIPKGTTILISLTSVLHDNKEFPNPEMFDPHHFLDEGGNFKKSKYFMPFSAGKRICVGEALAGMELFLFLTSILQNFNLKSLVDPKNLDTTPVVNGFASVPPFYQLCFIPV
Chain of Cytochrome P450 3A4 (P08684 whole entry): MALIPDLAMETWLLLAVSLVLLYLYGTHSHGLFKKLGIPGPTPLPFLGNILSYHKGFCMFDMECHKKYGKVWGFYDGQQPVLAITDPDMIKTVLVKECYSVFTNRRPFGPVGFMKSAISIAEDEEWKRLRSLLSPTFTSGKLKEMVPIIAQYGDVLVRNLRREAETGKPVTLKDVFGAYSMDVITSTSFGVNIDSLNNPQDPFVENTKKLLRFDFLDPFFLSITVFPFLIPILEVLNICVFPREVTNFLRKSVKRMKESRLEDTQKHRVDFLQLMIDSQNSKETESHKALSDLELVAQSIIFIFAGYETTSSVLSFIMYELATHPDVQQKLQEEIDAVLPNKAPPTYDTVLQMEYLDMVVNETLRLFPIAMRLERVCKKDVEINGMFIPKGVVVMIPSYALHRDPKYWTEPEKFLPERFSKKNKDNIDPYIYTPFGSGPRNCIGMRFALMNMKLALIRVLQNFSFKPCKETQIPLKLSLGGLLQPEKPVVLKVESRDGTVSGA

Structure (SMILES): COC[C@](CO)(OC[C@H]1O[C@@H](n2ncc3c(NC4CCCC4)nc(Cl)nc32)[C@H](O)[C@@H]1O)P(=O)(O)O
- inhibition [1]: Active
- inhibition [2]: Dose-dependent effect
- Activity (E.G7-OVA [3]): Active
- AUC [4]: 2.11 µM·h
- AUC [5]: 1.96 µM·h
- clearance [6]: 20.3 mL/min/kg
- inhibition [7]: 100%
- IC50 (Cytochrome P450 2C8): > 20000 nM
- EC50 (5'-nucleotidase [8]): 14 nM
- EC50 (5'-nucleotidase [9]): 0.22 nM
- IC50 (Cytochrome P450 2C9): > 20000 nM
- clearance [10]: 0.833 mL/min/kg
- Cmax [11]: 820 nM
- Activity (E.G7-OVA [12]): Active
- Cmax [13]: 1250 nM
- EC50 (5'-nucleotidase [14]): 0.79 nM
- Vd [15]: 0.22 L/kg
- inhibition (5'-nucleotidase [16]): Active
- inhibition (5'-nucleotidase [17]): 100%
- Cmax [18]: 42200 nM
- inhibition (5'-nucleotidase [19]): Active
- clearance [20]: 3 mL/min/kg
- Activity (EMT6 [21]): 100%
- half-life [22]: 0.82 h
- Activity (EMT6 [23]): 95%
- inhibition (5'-nucleotidase [24]): 100%
- inhibition (5'-nucleotidase [25]): Active
- AUC(0-inf) [26]: 45.1 µM·h
- AUC [27]: 14.2 µM·h
- AUC [28]: 7.72 µM·h
- IC50 (Cytochrome P450 3A4): > 20000 nM
- Cmax [29]: 1720 nM
- half-life [30]: 4.6 h
- AUC [31]: 1.75 µM·h
- half-life [32]: 3.3 h
- IC50 (5'-nucleotidase [33]): 0.25 nM
- Vd [34]: 0.29 L/kg
- AUC [35]: 0.31 µM·h
- Activity (EMT6 [36]): Active
- Vd [37]: 0.1 L/kg
- half-life [38]: 8.5 h
